“Also recorded” adds a separate entry of the source.
Experiments:
zebrafish larvae = assay: Zebrafish toxicity evaluation (maximum tolerated concentration); assay type: in vivo, Danio rerio; details: up to 18 hours exposure, 100 μg/mL used where no MTC was reached
Protocol: (§1) In case no MTC was reached, 100 μg/mL was used as the test concentration. In line with studies previously reported [Baraban et al. (2005) Neurosci 131, 759-768; Afrikanova et al. (2013) PLoS One 8, e54166], addition of the GABAA-receptor antagonist PTZ to the swimming water of 7 days post-fertilization (dpf) zebrafish larvae strongly elevated larval locomotion (p≤0.001) (FIGS. 2 and 3) as a result of induced seizures (or seizure-like behavior) that were recognized as typical high-speed swimming, whirlpool-like circling, clonus-like seizures, and loss of posture, as previously described in Baraban et al cited above.
Maximum tolerated concentration (MTC) was determined prior to further experiments and used as the highest test concentration. MTC was investigated by exposing 12 larvae of 6 days post-fertilization (dpf) to a range of concentrations in a 100 μL volume during 18 hours. The following parameters were investigated after 2 and 18 hours of exposure: touch response, morphology, posture, edema, signs of necrosis, swim bladder, and heartbeat. […] In case MTC was not reached, 100 μg/mL was used as the highest test concentration.

[1] = tested on: PTZ-induced seizures in zebrafish larvae; assay: Zebrafish PTZ seizure model, behavioral analysis; assay type: in vivo, Danio rerio; details: at MTC, 2 or 18 hours incubation (not specified per compound)
Protocol: To investigate whether the isolated compounds display antiseizure activity, they were tested in the zebrafish PTZ seizure model after both an acute (2 hours) and chronic (18 hours) incubation time at their maximum tolerated concentration (MTC) (Table 1, FIG. 1).
as §1
Experimental procedure was described in Afrikanova et al.(2013) PLoS One 8, e54166 and Orellana-Paucar et al. (2012) Epilepsy Behav 24, 14-22. In brief, a single 7 dpf larva (in case of 2 hours incubation) or 6 dpf larva (in case of 18 hours incubation) was placed in each well of a 96-well plate and treated with either VHC (1% DMSO) or compound (1% DMSO) in a 100 μL volume. Larvae were incubated in dark for 2 or 18 hours at 28° C., whereafter 100 μL of either VHC (embryo medium) or 40 mM PTZ (dissolved in embryo medium, 20 mM working concentration) was added to each well. Next, within 5 min the 96-well plate was placed in an automated tracking device (ZebraBox Viewpoint, France) and larval behavior was video recorded for 30 min. The complete procedure was performed in dark conditions using infrared light. Total locomotor activity was recorded by ZebraLab software (Viewpoint, France) and expressed in actinteg units, which is the sum of pixel changes detected during the defined time interval (5 min). Larval behavior was depicted as mean actinteg units/5 min during the 30 min recording period and over 5 min time intervals. Data are expressed as mean±SD or as mean ±SEM when the means of independent experiments were pooled.

NMRI mice = assay: Mouse 6-Hz (44 mA) psychomotor seizure model; assay type: in vivo
Source text: Although the zebrafish model has a high degree of genetic, physiological and pharmacological conservation^13, it is more distinct from humans than mammals. Therefore, we were interested to see if the observed antiseizure properties of azaspirofuran A and pseurotin A2 would translate to a rodent model. The mouse 6-Hz (44 mA) psychomotor seizure model was chosen, because it can detect compounds with novel antiseizure mechanisms and with potential against drug-resistant seizures [Barton et al. (2001) Epilepsy Res 47, 217-227; Wilcox et al. (2013) Epilepsia 54 S4, 24-34]. In this model drug-resistant focal impaired awareness seizures [Fisher et al. (2017) Epilepsia 58, 531-542], previously referred to as complex partial or psychomotor seizures [Holcomb and Dean (2011) Psychomotor Seizures, In Encyclopedia of Child Behavior and Development (Goldstein, S., and Naglieri, J. A., Eds.), pp 1191-1192, Springer US, Boston, Mass.], are induced by low frequency, long duration corneal electrical stimulation (6 Hz, 0.2 ms rectangular pulse width, 3 s duration, 44 mA) and are characterized by stun, twitching of the vibrissae, forelimb clonus, and Straub tail. […] Stimulated mice with a seizure duration shorter than 27 seconds were thus considered to be protected. […] Besides, this study provides another example of the translation of results from zebrafish to rodent seizure models.
Experimental procedure was described in Copmans et al. (2018) Neurochem. Int. 112, 124-133. before Buenafe et al. cited above; Orellana-Paucar cited above. In brief, NMRI mice (average weight 28 g, range 23-32 g) were randomly divided into control and treatment groups (n=5-10). 50 μL (injection volume was adjusted to the individual weight) of VHC (PEG200:DMSO:water; 0.25:0.25:0.5) or treatment (an ASD or test compound dissolved in VHC) was i.p. injected in mice and after 30 or 120 (in case of phenytoin, as reported by Barton et al. cited above) min psychomotor seizures were induced by low frequency, long duration corneal electrical stimulation (6 Hz, 0.2 ms rectangular pulse width, 3 s duration, 44 mA) using an ECT Unit 5780 (Ugo Basile, Comerio, Italy). Mice were manually restrained and a drop of ocular anesthetic (0.5% lidocaine) was applied to the corneas before stimulation. Following electrical current stimulation, the mouse was released in a transparent cage for behavioral observation, which was video-recorded. […] In addition, facial and mouth jerking as well as head nodding were observed occasionally. Mice displaying normal exploratory and locomotion behavior within a time period of 26 seconds were considered to be protected against the induced psychomotor seizures. Seizure durations were measured during the experiment by experienced researchers, familiar with the different seizure behaviors. In addition, seizure durations were determined by blinded video analysis to confirm or correct the initial observations. Data are expressed as mean±SD.

[2] = tested on: PTZ-induced epileptiform brain activity in zebrafish larvae; assay: Zebrafish PTZ seizure model, local field potential recordings (electrophysiology); assay type: in vivo, Danio rerio; details: vs VHC+PTZ
Source text: To determine whether azaspirofuran A and pseurotin A2 can ameliorate the PTZ-induced hyperexcitable state of the brain that is characterized by epileptiform discharges, local field potential (LFP) recordings were non-invasively measured from the midbrain (optic tectum) of zebrafish larvae [Zdebik et al. (2013) PLoS One 8, e79765; Britton et al. (2016) In Electroencephalography (EEG): An Introductory Text and Atlas of Normal and Abnormal Findings in Adults, Children, and Infants (St. Louis and Frey, Eds.), Chicago]. To that end larvae were treated with either VHC or test compound (MTC and optimal incubation time were used) followed by a 15 min during exposure to PTZ or VHC prior to the electrophysiology measurements (FIG. 4). […] Thus, both compounds not only ameliorate PTZ-induced seizures but are likely to do so by lowering the PTZ-induced hyperexcitable state of the brain.
Experimental procedure was described before [Zdebik et al. (2013) PLoS One 8, e79765; Sourbron et al. (2017) Front. Pharmac. 8, 191; Copmans et al. (2018) Neurochem. Int. 112, 124-133.]. Non-invasive LFP recordings were measured from the midbrain (optic tectum) of 7 dpf zebrafish larvae pre-incubated with VHC only, PTZ only, compound and VHC, or compound and PTZ. Larvae were incubated for approximately 2 or 18 hours with VHC (1% DMSO) or compound (1% DMSO) in a 100 μL volume. After incubation, 100 μL of VHC (embryo medium) or 40 mM PTZ (dissolved in embryo medium, 20 mM working concentration) was added to the well for 15 min prior to recording. These steps occurred at 28° C., while further manipulation and electrophysiological recordings occurred at room temperature (21° C.). The larva was embedded in 2% low melting point agarose (Invitrogen) and the signal electrode (an electrode inside a soda-glass pipet (1412227, Hilgenberg) pulled with a DMZ Universal Puller (Zeitz, Germany), diameter±20 microns, containing artificial cerebrospinal fluid (ACSF: 124 mM NaCl, 10 mM glucose, 2 mM KCl, 2 mM MgSO4, 2 mM CaCl2, 1.25 mM KH2PO4, and 26 mM NaHCO3, 300-310 mOsmols)) was positioned on the skin covering the optic tectum. A differential extracellular amplifier (DAGAN, USA) amplified the voltage difference between the signal (measured by the signal electrode) and the reference electrode. The differential signal was band pass filtered at 0.3-300 Hz and digitized at 2 kHz via a PCI-6251 interface (National instruments, UK) using WinEDR (John Dempster, University of Strathclyde, UK). A grounding electrode grounded the electrical system. All electrodes were connected with ACSF. Each recording lasted 600 seconds. Manual analysis was completed by quantification of the number, cumulative duration, and mean duration of epileptiform-like events with Clampfit 10.2 software (Molecular Devices Corporation, USA). An electrical discharge was considered epileptiform if it was a poly-spiking event comprising at least 3 spikes with a minimum amplitude of three times the baseline amplitude and a duration of at least 100 milliseconds. Data are expressed as mean±SD for the number and cumulative duration of epileptiform events and as mean±SEM for the mean duration of events.

[3] = MTC and optimal incubation time, 10 min recording

11-O-methylpseurotin A
MTC (maximum tolerated concentration) (zebrafish larvae): 100 µg/mL
PTZ-induced seizures (seizure-like behavior) [1]: less pronounce reduction in PTZ-induced seizures
PTZ-induced seizures (seizure-like behavior) ([1]; listed as 11-Omethylpseurotin A): not active

CC/C=C\C(OC(=O)c1ccccc1N)C(O)C1=C(C)C(=O)C2(O1)C(=O)NC(OC)(C(=O)c1ccccc1)C2O (centres unmarked) [11-anthranilyl-Pseurotin A]
MTC (maximum tolerated concentration) (zebrafish larvae): 100 µg/mL
PTZ-induced seizures (seizure-like behavior) [1]: less pronounce reduction in PTZ-induced seizures

CCc1ccc(C2=C(C)C(=O)[C@]3(O2)C(=O)N[C@@](O)(C(=O)c2ccccc2)[C@@H]3O)o1 [azaspirofuran B]
MTC (maximum tolerated concentration) (zebrafish larvae): 12.5 µg/mL

O=C1NC(=O)C(c2ccccc2)(c2ccccc2)N1 [phenytoin, reference compound]
response of seizures (NMRI mice; 10 mg/kg i.p., 120 min before electrical stimulation): limited non-significant response

CC/C=C\[C@H](O)[C@H](O)C1=C(C)C(=O)[C@]2(O1)C(=O)N[C@@](OC)(C(=O)c1ccccc1)[C@@H]2O [pseurotin A]
MTC (maximum tolerated concentration) (zebrafish larvae): 100 µg/mL
PTZ-induced seizures (seizure-like behavior) [1]: not active
mean duration of epileptiform events ([2]; 100 μg/mL, 18 hours): significantly lower the mean duration
cumulative duration of epileptiform events [2, 3]: non-significantly lower
number of epileptiform events [2, 3]: non-significantly lower

CCC(O)C=C[C@H](O)C1=C(C)C(=O)[C@]2(O1)C(=O)N[C@@](OC)(C(=O)c1ccccc1)[C@@H]2O (some centres unmarked) [pseurotin D]
MTC (maximum tolerated concentration) (zebrafish larvae): 100 µg/mL
PTZ-induced seizures (seizure-like behavior) [1]: less pronounce reduction in PTZ-induced seizures; also recorded: not active

CC/C=C\[C@H](O)[C@H](O)C1=C(C)C(=O)[C@]2(O1)C(=O)N[C@](O)(C(=O)c1ccccc1)[C@@H]2O [pseurotin F1]
MTC (maximum tolerated concentration) (zebrafish larvae): 50 µg/mL
PTZ-induced seizures (seizure-like behavior) [1]: less pronounce reduction in PTZ-induced seizures

CCCC(CCC)C(=O)O [valproate, reference compound]
mean seizure duration (NMRI mice; 300 mg/kg i.p., 30 min before electrical stimulation): 4 s

Source: patent US20200253929A1, “TREATMENT OF EPILEPSY” (priority 2017, published 2020)
